Legend:
[1] = 101 kPa, Liquid; for viscosity: Falling or rolling sphere viscometry; for speed of sound: Sing-around technique in a fixed-path interferometer; for mass density: Vibrating tube method
[2] = xn = mol fraction of the nth substance listed; details: 101 kPa, Liquid, x2 = 0; for viscosity: Falling or rolling sphere viscometry; for speed of sound: Sing-around technique in a fixed-path interferometer; for mass density: Vibrating tube method

CCCCCC[n+]1ccn(C)c1.O=S(=O)([N-]S(=O)(=O)C(F)(F)F)C(F)(F)F
[1]
Details	mass density [kg/m3]	speed of sound [m/s]	viscosity [mPa·s]
278.15 K	1390.3	1274.6	211.31
298.15 K	1371.64	1226.8	70.46
318.15 K	1353.31	1182	30.22
338.15 K	1335.25	1139.3	–

CCCC[n+]1ccn(C)c1.O=S(=O)([N-]S(=O)(=O)C(F)(F)F)C(F)(F)F
[1]
Details	mass density [kg/m3]	speed of sound [m/s]	viscosity [mPa·s]
278.15 K	1453.69	1273.8	139.82
298.15 K	1434.23	1227.5	51.22
318.15 K	1415.13	1184	24.36
338.15 K	1396.35	1142.7	13.94

CCn1cc[n+](C)c1.O=S(=O)([N-]S(=O)(=O)C(F)(F)F)C(F)(F)F
[1]
Details	mass density [kg/m3]	speed of sound [m/s]	viscosity [mPa·s]
278.15 K	1538.23	1284.9	75.08
298.15 K	1517.76	1240.1	32.02
318.15 K	1497.65	1196.6	17.32
338.15 K	1477.86	1155.8	10.82

CCO [ethanol]
[1]
Details	mass density [kg/m3]	speed of sound [m/s]	viscosity [mPa·s]
278.15 K	802.39	1212.9	1.59
298.15 K	785.32	1143.1	1.08
318.15 K	767.84	1075.7	0.77
338.15 K	749.54	1009.4	0.56

CCO [ethanol] + CCCCCC[n+]1ccn(C)c1.O=S(=O)([N-]S(=O)(=O)C(F)(F)F)C(F)(F)F
[2]
Details	mass density [kg/m3]	speed of sound [m/s]	viscosity [mPa·s]
278.15 K	802.39	1212.9	1.59
298.15 K	785.32	1143.1	1.08
318.15 K	767.84	1075.7	0.77
338.15 K	749.54	1009.4	–

CCO [ethanol] + CCCC[n+]1ccn(C)c1.O=S(=O)([N-]S(=O)(=O)C(F)(F)F)C(F)(F)F
[2]
Details	mass density [kg/m3]	speed of sound [m/s]	viscosity [mPa·s]
278.15 K	802.39	1212.9	1.59
298.15 K	785.32	1143.1	1.08
318.15 K	767.84	1075.7	0.77
338.15 K	749.54	1009.4	0.56

CCO [ethanol] + CCn1cc[n+](C)c1.O=S(=O)([N-]S(=O)(=O)C(F)(F)F)C(F)(F)F
[2]
Details	mass density [kg/m3]	speed of sound [m/s]	viscosity [mPa·s]
278.15 K	802.39	1212.9	1.59
298.15 K	785.32	1143.1	1.08
318.15 K	767.84	1075.7	0.77
338.15 K	749.54	1009.4	0.56

— the NIST ThermoML archive (doi:10.1021/je500594z)
